This is an account of results in patent US10829473B2, “Modulators of the cystic fibrosis transmembrane conductance regulator protein and methods of use” (AbbVie Overseas S.Á.R.L., priority 2017, dated 2020).

The assay concerns the target T1, F508delCFTR (Homo sapiens, UniProt P13569, DEL508-508).
T1 construct: expressed in transfected cells; host or cells: CFBE41o- human lung derived epithelial cells (CFBE41o-F508delCFTR-HRP), doxycycline-inducible
Description: Cell Surface Expression-Horse Radish Peroxidase (CSE-HRP) Assay.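 On EC50 (with co-corrector): co-corrector chromenyl benzoic acid corrector at 2 or 3 µM.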 Conditions: for Maximum % activity (with co-corrector) / Emax: maximum at any tested concentration; for Emax: read-out: Maximum % activity (without co-corrector). The class given is cell-based. The method in brief: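 Corrector compounds were given as 8-point 3-fold series from 20 or 30 μM, with or without a 2 μM co-corrector, for 18-24 h at 33 °C. Surface HRP was read by luminol luminescence as % of positive control; variable-Hill-slope sigmoidal fitting gave EC50 from triplicate plates.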

Where [1] appears, read: test compound alone, without co-corrector, read-out: EC50 (without co-corrector).
Setting [2] is: with co-corrector, read-out: EC50 (with co-corrector).

Structures are written as SMILES. Like-named read-outs stand apart in the source and are kept apart here.

T1 sequence (P13569 with tags, fused parts or gaps DEL508-508): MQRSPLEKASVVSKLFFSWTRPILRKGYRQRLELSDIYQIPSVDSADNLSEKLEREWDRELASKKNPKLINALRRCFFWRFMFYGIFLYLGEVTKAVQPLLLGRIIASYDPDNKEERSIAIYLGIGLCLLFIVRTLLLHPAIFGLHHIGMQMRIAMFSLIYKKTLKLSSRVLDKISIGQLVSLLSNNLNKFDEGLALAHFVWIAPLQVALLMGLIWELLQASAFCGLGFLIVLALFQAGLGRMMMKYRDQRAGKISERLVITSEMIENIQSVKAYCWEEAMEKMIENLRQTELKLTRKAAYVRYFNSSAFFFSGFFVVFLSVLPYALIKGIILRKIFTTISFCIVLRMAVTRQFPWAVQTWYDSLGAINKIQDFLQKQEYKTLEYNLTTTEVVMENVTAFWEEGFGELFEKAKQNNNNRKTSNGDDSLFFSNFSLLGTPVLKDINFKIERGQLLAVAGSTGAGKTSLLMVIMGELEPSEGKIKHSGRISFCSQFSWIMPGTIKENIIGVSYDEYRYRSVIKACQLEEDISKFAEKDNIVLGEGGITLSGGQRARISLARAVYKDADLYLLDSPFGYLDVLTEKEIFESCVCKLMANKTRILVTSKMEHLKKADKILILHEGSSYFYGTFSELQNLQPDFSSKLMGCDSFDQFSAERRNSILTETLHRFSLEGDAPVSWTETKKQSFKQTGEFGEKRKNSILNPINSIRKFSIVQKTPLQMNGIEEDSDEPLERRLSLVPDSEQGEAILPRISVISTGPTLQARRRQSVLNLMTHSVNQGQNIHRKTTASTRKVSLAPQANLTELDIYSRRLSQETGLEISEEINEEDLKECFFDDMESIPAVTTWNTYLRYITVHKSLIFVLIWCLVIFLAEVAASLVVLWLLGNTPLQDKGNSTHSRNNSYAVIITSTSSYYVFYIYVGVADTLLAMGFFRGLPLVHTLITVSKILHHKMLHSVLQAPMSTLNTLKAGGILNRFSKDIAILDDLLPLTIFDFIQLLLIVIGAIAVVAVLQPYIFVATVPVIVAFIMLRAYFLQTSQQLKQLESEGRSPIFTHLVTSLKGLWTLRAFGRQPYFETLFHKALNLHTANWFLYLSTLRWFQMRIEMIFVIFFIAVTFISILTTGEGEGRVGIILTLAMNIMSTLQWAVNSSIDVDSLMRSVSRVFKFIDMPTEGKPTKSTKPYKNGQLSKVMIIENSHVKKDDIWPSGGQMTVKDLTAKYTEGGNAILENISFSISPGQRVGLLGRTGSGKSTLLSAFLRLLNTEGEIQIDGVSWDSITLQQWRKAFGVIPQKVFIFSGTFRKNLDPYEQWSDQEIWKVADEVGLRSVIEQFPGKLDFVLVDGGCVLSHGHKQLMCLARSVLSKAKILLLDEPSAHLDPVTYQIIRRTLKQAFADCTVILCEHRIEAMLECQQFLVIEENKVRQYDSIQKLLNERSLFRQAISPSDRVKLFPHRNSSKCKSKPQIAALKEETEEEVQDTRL

As usually defined, the EC50 is the concentration giving half of the maximal effect. Regarding `O=C(NS(=O)(=O)Cc1ccccc1)C1(c2ccccc2F)CC1` [Example III-35, 1-(2-fluorophenyl)-N-(phenylmethanesulfonyl)cyclopropane-1-carboxamide], the 50% effective concentration (EC50) runs as follows: under setting [1], greater than 10 µM; under setting [2], greater than 10 µM. In addition, the “Maximum % activity (with co-corrector)” value (with co-corrector) is “++ (≥150 and <350)”. Moreover, for the setting “without co-corrector”, the Emax was less than 50%.
In the case of `O=C(NS(=O)(=O)C1CCS(=O)(=O)C1)C1(c2ccc(Cl)cc2Cl)CC1` (stereo not drawn) [Example III-36, 1-(2,4-dichlorophenyl)-N-(1,1-dioxo-1λ^6-thiolane-3-sulfonyl)cyclopropane-1-carboxamide], the EC50 under setting [1] was greater than 10 µM and the EC50 under setting [2] is greater than 10 µM. The “Maximum % activity (with co-corrector)” value (with co-corrector) is given as “+ (<150)”. In addition, the Emax (without co-corrector) was less than 50%.
On to `Cc1ccc(S(=O)(=O)NC(=O)C2(c3ccc(Cl)cc3Cl)CC2)cc1` [Example III-37, 1-(2,4-dichlorophenyl)-N-(4-methylbenzene-1-sulfonyl)cyclopropane-1-carboxamide], for which the EC50 is, setting by setting: under setting [1], greater than 10 µM; under setting [2], 3 to 10 µM. Further, the “Maximum % activity (with co-corrector)” value (with co-corrector) is “++ (≥150 and <350)”. The Emax (without co-corrector) is less than 50%.
Consider `O=C(NS(=O)(=O)c1cc([N+](=O)[O-])ccc1Cl)C1(c2cccc(Cl)c2)CC1` [Example III-55, N-(2-chloro-5-nitrobenzene-1-sulfonyl)-1-(3-chlorophenyl)cyclopropane-1-carboxamide], for which the concentration giving a half-maximal response (EC50) is greater than 10 µM under setting [1] and greater than 10 µM under setting [2]. In addition, the “Maximum % activity (with co-corrector)” value (with co-corrector) is on record as “+ (<150)”. Moreover, the Emax (without co-corrector) is less than 50%.
For `CCOc1ccc2nc(S(=O)(=O)NC(=O)C3(c4cccc(Cl)c4)CC3)sc2c1` [Example III-56, 1-(3-chlorophenyl)-N-(6-ethoxy-1,3-benzothiazole-2-sulfonyl)cyclopropane-1-carboxamide], the EC50 runs as follows: under setting [1], greater than 10 µM; under setting [2], greater than 10 µM. The “Maximum % activity (with co-corrector)” value (with co-corrector) is on record as “+ (<150)”. Further, the Emax (without co-corrector) is less than 50%.
`O=C(NS(=O)(=O)c1cccc2c(O)cccc12)C1(c2cccc(Cl)c2)CC1` [Example III-57, 1-(3-chlorophenyl)-N-(5-hydroxynaphthalene-1-sulfonyl)cyclopropane-1-carboxamide]: the EC50 by setting is: under setting [1], greater than 10 µM; under setting [2], greater than 10 µM. Further, under “with co-corrector”, the “Maximum % activity (with co-corrector)” value is on record as “+ (<150)”. In addition, where the note is “without co-corrector”, the Emax is less than 50%.
Regarding `CN(C)c1cccc2c(S(=O)(=O)NC(=O)C3(c4cccc(Cl)c4)CC3)cccc12` [Example III-58, 1-(3-chlorophenyl)-N-[5-(dimethylamino)naphthalene-1-sulfonyl]cyclopropane-1-carboxamide], the EC50 under setting [1] was greater than 10 µM and the concentration for a half-maximal effect (EC50) under setting [2] fell in the range of 3 to 10 µM. In addition, for the setting “with co-corrector”, the “Maximum % activity (with co-corrector)” value is “++ (≥150 and <350)”. For the same compound, the Emax (without co-corrector) is less than 50%.
Turning to `O=C(NS(=O)(=O)c1cccnc1)C1(c2ccc(Cl)cc2Cl)CC1` [Example III-59, 1-(2,4-dichlorophenyl)-N-(pyridine-3-sulfonyl)cyclopropane-1-carboxamide], the EC50 under setting [1] was greater than 10 µM and the EC50 under setting [2] was in the range of 3 to 10 µM. The “Maximum % activity (with co-corrector)” value (with co-corrector) was “+ (<150)”. For the same compound, the Emax (without co-corrector) is less than 50%.
For `CC1(C)CC1(C(=O)NS(=O)(=O)c1ccccc1)c1ccccc1` (stereo not drawn) [Example III-61, N-(benzenesulfonyl)-2,2-dimethyl-1-phenylcyclopropane-1-carboxamide], the EC50 reads like this: under setting [1], greater than 10 µM; under setting [2], 3 to 10 µM. Besides, the “Maximum % activity (with co-corrector)” value (with co-corrector) was “++ (≥150 and <350)”. For the setting “without co-corrector”, the Emax was less than 50%.
With `COC(=O)c1ccc(S(=O)(=O)NC(=O)C2(c3ccc(Cl)cc3Cl)CC2)o1` [Example III-62, methyl 5-{[1-(2,4-dichlorophenyl)cyclopropane-1-carbonyl]ulfamoyl}furan-2-carboxylate], the EC50 is greater than 10 µM under setting [1] and greater than 10 µM under setting [2]. Under “with co-corrector”, the “Maximum % activity (with co-corrector)” value is “+ (<150)”. Moreover, the Emax (without co-corrector) is less than 50%.
As to `O=C(NS(=O)(=O)c1ccc(Br)s1)C1(c2ccc(Cl)cc2Cl)CC1` [Example III-63, N-(5-bromothiophene-2-sulfonyl)-1-(2,4-dichlorophenyl)cyclopropane-1-carboxamide], the concentration giving a half-maximal response (EC50) is greater than 10 µM under setting [1] and 3 to 10 µM under setting [2]. Besides, the “Maximum % activity (with co-corrector)” value (with co-corrector) is “++ (≥150 and <350)”. In addition, the Emax (without co-corrector) was less than 50%.
On to `O=C(NS(=O)(=O)c1cccc(OC(F)(F)F)c1)C1(c2ccc(Cl)cc2Cl)CC1` [Example III-64, 1-(2,4-dichlorophenyl)-N-[3-(trifluoromethoxy)benzene-1-sulfonyl]cyclopropane-1-carboxamide], for which the EC50 is, setting by setting: under setting [1], greater than 10 µM; under setting [2], greater than 10 µM. In addition, where the note is “with co-corrector”, the “Maximum % activity (with co-corrector)” value is recorded as “+ (<150)”. The Emax (without co-corrector) was less than 50%.
As to `COC(=O)c1ccc(Cl)cc1S(=O)(=O)NC(=O)C1(c2ccc(Cl)cc2Cl)CC1` [Example III-66, methyl 4-chloro-2-{[l-(2,4-dichlorophenyl)cyclopropane-1-carbonyl]sulfamoyl}benzoate], the EC50 by setting is: under setting [1], greater than 10 µM; under setting [2], 3 to 10 µM. Besides, under “with co-corrector”, the “Maximum % activity (with co-corrector)” value was “++ (≥150 and <350)”. For the same compound, the Emax (without co-corrector) was less than 50%.
Regarding `O=C(O)c1ccccc1S(=O)(=O)NC(=O)C1(c2ccc(Cl)cc2Cl)CC1` [Example III-67], the EC50 is greater than 10 µM under setting [1] and greater than 10 µM under setting [2]. For the same compound, the “Maximum % activity (with co-corrector)” value (with co-corrector) is “+ (<150)”. Also, the Emax (without co-corrector) is less than 50%.
For `O=C(O)c1ccc(Cl)cc1S(=O)(=O)NC(=O)C1(c2ccc(Cl)cc2Cl)CC1` [Example III-68, 4-chloro-2-{[l-(2,4-dichlorophenyl)cyclopropane-1-carbonyl]sulfamoyl}benzoic acid], the concentration giving a half-maximal response (EC50) under setting [1] is greater than 10 µM and the half-maximal effective concentration (EC50) under setting [2] was less than 3 µM. The “Maximum % activity (with co-corrector)” value (with co-corrector) is “+ (<150)”. Further, under “without co-corrector”, the Emax is less than 50%.
For the compound `O=C(OCc1ccccc1)N1CCC(S(=O)(=O)NC(=O)C2(c3ccc(Cl)c(Cl)c3)CC2)CC1` [Example III-70, benzyl 4-{[1-(3,4-dichlorophenyl)cyclopropane-1-carbonyl]sulfamoyl}piperidine-1-carboxylate], the EC50 was greater than 10 µM under setting [1] and greater than 10 µM under setting [2]. Besides, the “Maximum % activity (with co-corrector)” value (with co-corrector) was “+ (<150)”. Also, the Emax (without co-corrector) was less than 50%.
As for `O=C(NS(=O)(=O)c1ccccc1)C1(c2cccc(Br)c2)CC1` [Example III-71, N-(benzenesulfonyl)-1-(3-bromophenyl)cyclopropane-1-carboxamide], the concentration for a half-maximal effect (EC50) runs as follows: under setting [1], 3 to 10 µM; under setting [2], 3 to 10 µM. Also, where the note is “with co-corrector”, the “Maximum % activity (with co-corrector)” value is reported as “+++ (≥350)”. Under “without co-corrector”, the Emax is 50 to 150%.
Regarding `O=C(N1CCc2ccc(S(=O)(=O)NC(=O)C3(c4cccc(Cl)c4)CC3)cc2C1)C(F)(F)F` [Example III-72, 1-(3-chlorophenyl)-N-[2-(trifluoroacetyl)-1,2,3,4-tetrahydroisoquinoline-7-sulfonyl]cyclopropane-1-carboxamide], the EC50 under setting [1] is greater than 10 µM and the concentration for a half-maximal effect (EC50) under setting [2] is greater than 10 µM. Where the note is “with co-corrector”, the “Maximum % activity (with co-corrector)” value is listed as “+ (<150)”. In addition, the Emax (without co-corrector) was less than 50%.
For `O=C(NS(=O)(=O)c1ccc(-n2cccn2)cc1)C1(c2cccc(Cl)c2)CC1` [Example III-73, 1-(3-chlorophenyl)-N-[4-(1H-pyrazol-1-yl)benzene-1-sulfonyl]cyclopropane-1-carboxamide], the EC50 under setting [1] was greater than 10 µM and the EC50 under setting [2] was greater than 10 µM. Besides, the “Maximum % activity (with co-corrector)” value (with co-corrector) is listed as “+ (<150)”. Further, the Emax (without co-corrector) was less than 50%.
Regarding `Cc1ccc(S(=O)(=O)NC(=O)C2(c3cccc(Cl)c3)CC2)cc1C` [Example III-74, 1-(3-chlorophenyl)-N-(3,4-dimethylbenzene-1-sulfonyl)cyclopropane-1-carboxamide], the EC50 was greater than 10 µM under setting [1] and greater than 10 µM under setting [2]. In addition, for the setting “with co-corrector”, the “Maximum % activity (with co-corrector)” value is “+ (<150)”. The Emax (without co-corrector) is less than 50%.
As to `O=C1Cc2cc(S(=O)(=O)NC(=O)C3(c4cccc(Cl)c4)CC3)ccc2N1` [Example III-75, 1-(3-chlorophenyl)-N-(2-oxo-2,3-dihydro-1H-indole-5-sulfonyl)cyclopropane-1-carboxamide], the EC50 by setting is: under setting [1], greater than 10 µM; under setting [2], greater than 10 µM. For the same compound, for the setting “with co-corrector”, the “Maximum % activity (with co-corrector)” value is recorded as “+ (<150)”. For the setting “without co-corrector”, the Emax was less than 50%.
Consider `CC(=O)N1CCc2cc(S(=O)(=O)NC(=O)C3(c4cccc(Cl)c4)CC3)ccc21` [Example III-76, N-(1-acetyl-2,3-dihydro-1H-indole-5-sulfonyl)-1-(3-chlorophenyl)cyclopropane-1-carboxamide], for which the half-maximal effective concentration (EC50) by setting is: under setting [1], greater than 10 µM; under setting [2], greater than 10 µM. Further, the “Maximum % activity (with co-corrector)” value (with co-corrector) is on record as “+ (<150)”. For the same compound, the Emax (without co-corrector) is less than 50%.
For the compound `O=C(NS(=O)(=O)C1CCNCC1)C1(c2ccc(Cl)cc2Cl)CC1` [Example III-77, 1-(2.4-dichlorophcnyl)-N-(piperidine-4-sulfonyl)cyclopropane-1-carboxamide], the EC50 by setting is: under setting [1], greater than 10 µM; under setting [2], greater than 10 µM. Moreover, the “Maximum % activity (with co-corrector)” value (with co-corrector) is “+ (<150)”. In addition, for the setting “without co-corrector”, the Emax was less than 50%.
For `CC(=O)N1CCC(S(=O)(=O)NC(=O)C2(c3ccc(Cl)cc3Cl)CC2)CC1` [Example III-78, N-(1-acetylpiperidine-4-sulfonyl)-1-(2,4-dichlorophenyl)cyclopropane-1-carboxamide], the concentration giving a half-maximal response (EC50) reads like this: under setting [1], greater than 10 µM; under setting [2], greater than 10 µM. Moreover, the “Maximum % activity (with co-corrector)” value (with co-corrector) is listed as “+ (<150)”. Further, the Emax (without co-corrector) was less than 50%.
